# pIC50: −log10 of the molar value.
# Legend:
# [1] = In vitro antimalarial activity against Plasmodium falciparum K1CB1 double DHFR mutant (C59R/S108N)
# [2] = In vitro antimalarial activity relative to trimethoprim against Plasmodium falciparum TM4/8.2 wtDHFR
# [3] = In vitro antimalarial activity against Plasmodium falciparum Csl-2 triple DHFR mutant (C59R/S108N/I164L)/
# [4] = In vitro antimalarial activity against Plasmodium falciparum TM4/8.2 wtDHFR
# [5] = In vitro antimalarial activity against Plasmodium falciparum Vl/S with quadruple DHFR mutant (N51I/C59R/S108N/I164L)
# [6] = In vitro antimalarial activity against Plasmodium falciparum K1CB1 double DHFR mutation (C59R/S108N) relative to trimethoprim
# [7] = In vitro antimalarial activity against Plasmodium falciparum Csl-2 triple DHFR mutant (C59R/S108N/I164L) relative to trimethoprim
# [8] = In vitro antimalarial activity relative to trimethoprim against Plasmodium falciparum Vl/S with quadruple DHFR mutant (N51I/C59R/S108N/I164L)
structure (smiles),measurement,setting,value
"COc1ccc(Cc2cnc(N)nc2N)cc1OCc1ccccc1 [5-(3-Benzyloxy-4-methoxy-benzyl)-pyrimidine-2,4-diamine]",pIC50,[1],5.42
same,IC50 ratio,[2],2.62
same,pIC50,[3],5.24
same,pIC50,[4],4.76
same,pIC50,[5],< 4.30
same,IC50 ratio,[6],0.03
same,IC50 ratio,[7],0.05
same,IC50 ratio,[8],0.25
"COc1cc(Cc2c(C)nc(N)nc2N)ccc1OCc1ccccc1 [5-(4-(benzyloxy)-3-methoxybenzyl)-6-methylpyrimidine-2,4-diamine]",pIC50,[1],4.60
same,IC50 ratio,[2],1.03
same,pIC50,[3],5.55
same,pIC50,[4],5.16
same,pIC50,[5],5.32
same,IC50 ratio,[6],0.18
same,IC50 ratio,[7],0.02
"CCc1nc(N)nc(N)c1Cc1ccc(OCc2ccccc2)c(OC)c1 [5-(4-Benzyloxy-3-methoxy-benzyl)-6-ethyl-pyrimidine-2,4-diamine]",pIC50,[1],4.79
same,IC50 ratio,[2],0.76
same,pIC50,[3],5.27
same,pIC50,[4],5.30
same,pIC50,[5],4.95
same,IC50 ratio,[6],0.12
same,IC50 ratio,[7],0.05
"COc1cc(Cc2cnc(N)nc2N)ccc1OCc1cc(OC)c(OC)c(OC)c1 [5-[3-Methoxy-4-(3,4,5-trimethoxy-benzyloxy)-benzyl]-pyrimidine-2,4-diamine]",pIC50,[1],4.56
same,IC50 ratio,[2],0.05
same,pIC50,[3],4.51
same,pIC50,[4],6.51
same,pIC50,[5],4.58
same,IC50 ratio,[6],0.13
same,IC50 ratio,[7],0.26

# Reference: BindingDB's records for doi:10.1021/jm0303352 (National Center For Genetic Engineering and Biotechnology …, 2004)
